SMILES strings stand for the structures. Converted amounts (≈) assume the structure as drawn.

What all share (format): cell-based
Assay [1] relates to P. aeruginosa 18S IMIR (101148). The experiment in a line: MIC by agar dilution, P. aeruginosa 18S IMIR (101148). To be noted: Pseudomonas aeruginosa. The source says: (§1) The pharmaceutically acceptable carbapenem compounds of the present invention are useful antibacterial agents having a broad spectrum of activity in vitro against standard laboratory microorganisms, both Gram-negative and Gram-positive, which are used to screen for activity against pathogenic bacteria. The antibacterial spectrum and potency of a particular compound may be determined in a standard test system. In particular the carbapenems of the present invention show good stability to beta-lactamases and have particularly high activity in vitro against strains of Pseudomonas aeruginosa and other Gram-negative aerobic bacteria.
(§2) The following results were obtained for representative compounds on a standard in vitro test system using Diagnostic Sensitivity Test agar medium. The antibacterial activity is described in terms of the minimum inhibitory concentration (M1C) determined by the agar-dilution technique with an inoculum size of 10^4 CFU/spot.
Background: Agar dilution tests growth on a series of plates holding different concentrations.

In the next assay the test system is St. aureus 147N (601052). Kind of assay: MIC by agar dilution, St. aureus 147N (601052). To be noted: Staphylococcus aureus, Diagnostic Sensitivity Test agar, inoculum 10^4 CFU/spot.
Description: as §1, §2

The subject of assay [2] is P. aeruginosa PU21 (101028). The experiment in a line: MIC by agar dilution, P. aeruginosa PU21 (101028). To be noted: Pseudomonas aeruginosa, Diagnostic Sensitivity Test agar, inoculum 10^4 CFU/spot.
Description: as §1, §2

A further assay has as its system Pr. morganii (433001). The experiment in a line: MIC by agar dilution, Pr. morganii (433001). To be noted: Morganella morganii, Diagnostic Sensitivity Test agar, inoculum 10^4 CFU/spot.
Description: as §1, §2

For a further assay, the system named is E. coli DCO (341098). Kind of assay: MIC by agar dilution, E. coli DCO (341098). To be noted: Escherichia coli, Diagnostic Sensitivity Test agar, inoculum 10^4 CFU/spot.
Description: as §1, §2

The subject of assay [3] is Ent. cloacae P99^- (401054). The experiment in a line: MIC by agar dilution, Ent. cloacae P99^- (401054). To be noted: Enterobacter cloacae.
Description: as §1, §2

A further assay relates to Strep. pyogenes (681018). The experiment in a line: MIC by agar dilution, Strep. pyogenes (681018). To be noted: Streptococcus pyogenes, Diagnostic Sensitivity Test agar, inoculum 10^4 CFU/spot.
Description: as §1, §2

The subject of assay [4] is P. aeruginosa 18S (101024). Kind of assay: MIC by agar dilution, P. aeruginosa 18S (101024). To be noted: Pseudomonas aeruginosa, Diagnostic Sensitivity Test agar, inoculum 10^4 CFU/spot.
Description: as §1, §2

The test system of the next assay is Serr. marcesens (421003). Kind of assay: MIC by agar dilution, Serr. marcesens (421003). To be noted: Diagnostic Sensitivity Test agar, inoculum 10^4 CFU/spot.
Description: as §1, §2

Assay [5] concerns B. fragilis AMP R (542008). The experiment in a line: MIC by agar dilution, B. fragilis AMP R (542008). To be noted: Bacteroides fragilis, Diagnostic Sensitivity Test agar, inoculum 10^4 CFU/spot.
Description: as §1, §2

For a further assay, the system named is S. dublin (369001). Kind of assay: MIC by agar dilution, S. dublin (369001). To be noted: Salmonella enterica, Diagnostic Sensitivity Test agar, inoculum 10^4 CFU/spot.
Description: as §1, §2

In the case of `C[C@@H](O)[C@H]1C(=O)N2C(C(=O)O)=C(S[C@@H]3CN[C@H](CNC(=O)c4cc(O)c(O)c(C#N)c4)C3)[C@H](C)[C@H]12` [Example 3, (1R,5R,6S,8R,2'S,4'S)-2-(2-(5-cyano-3,4-dihydroxybenzoylaminomethyl)pyrrolidin-4-ylthio)-6-(1-hydroxyethyl)-1-methyulcarbapenem-3carboxylic acid], the minimum inhibitory concentration (MIC) (commonly the lowest concentration that inhibits growth of the organism) came out at 0.125 µg/mL (≈ 0.249 µM) in assay [1]; 0.125 µg/mL (≈ 0.249 µM) against St. aureus 147N (601052); 0.25 µg/mL (≈ 0.497 µM) in assay [2]; 0.5 µg/mL (≈ 0.995 µM) against Pr. morganii (433001); 0.03 µg/mL (≈ 0.0597 µM) against E. coli DCO (341098); 0.03 µg/mL (≈ 0.0597 µM) in assay [3]. For the same molecule, the minimal inhibitory concentration (MIC) in the assay on Strep. pyogenes (681018) turned out to be 8 ng/mL (≈ 0.0159 µM); in assay [4], 0.125 µg/mL (≈ 0.249 µM); against Serr. marcesens (421003) it was 0.25 µg/mL (≈ 0.497 µM); in assay [5] it was 4 µg/mL (≈ 7.96 µM); against S. dublin (369001) it was 0.06 µg/mL (≈ 0.119 µM).

For the origin of these results see patent US5447925A, “Antibiotic compounds” (Imperial Chemical Industries PLC, priority 1991, dated 1995).
